Test results taken from US20170122958A1, “Enzymes Functional Probes” (University of Dundee, priority 2013, published 2017).

Experiments:
Brd4(1) = target: T1, Brd4(1) (Homo sapiens, UniProt O60885); assay: DSF thermal shift; format: binding; settings: wild type
T1 construct: Plasmids of the eight single BET bromodomain constructs Brd2(1), Brd2(2), Brd3(1), Brd3(2), Brd4(1), Brd4(2), Brdt(1) and Brdt(2); His6 (N); made in house; host or cells: E. coli BL21(DE3)
Description: (§1) DSF assays were performed on a LightCycler®480 from Roche or a Mx3005P Real Time PCR machine from Stratagene. […] SYPRO®Orange from Invitrogen Molecular Probes® was used as a reporter dye to monitor the denaturing process of the proteins. Samples were assayed on a 96-well plate with final protein concentrations of 2 μM for the LightCycler®480 and 6 μM for Mx3005P. Compounds were added at a final concentration of 10 μM for the LightCycler®480 and 30 μM for Mx3005P, while the tetra acetylated histone peptide was added to a final concentration of 100 μM and 300 μM respectively. […] The temperature was raised with a step of 0.6° C. per minute from 37° C. to 95° C. with the LightCycler®480 collecting 39 measurements per ° C., and 1° C. per minute from 25° C. to 95° C. with Mx3005P, collecting fluorescence readings at the end of each interval. Each sample was run in triplicates.
(§2) Collected data was analysed by IGOR Pro 6, a scientific software tool from Wave Metrics, Inc. Analysis was done following the recommendations of Niesen et al.. Fluorescence intensity was plotted as a function of temperature, generating a sigmoidal curve described by a two-state transition from folded to unfolded protein. Curves were fitted by the following sigmoidal equation: […]
(§3) A1 and A2 are the values of minimum and maximum intensities, respectively, x0 is the inflection point and dx is the rate. Fitted curves were differentiated in IGOR Pro 6 and the maximum of the first derivative was identified using the same program. These values correspond to the inflection points of the transition curves and thus to the melting temperatures of the proteins (Tm).

Brd2(1) = target: T2, Brd2(1) (Homo sapiens, UniProt P25440); assay: DSF thermal shift; format: binding; settings: wild type
T2 construct: Plasmids of the eight single BET bromodomain constructs Brd2(1), Brd2(2), Brd3(1), Brd3(2); His6 (N); made in house; host or cells: E. coli BL21(DE3)
Description: as §1, §2, §3

Brd2(2) = target: T3, Brd2(2) (Homo sapiens, UniProt P25440); assay: DSF thermal shift; format: binding; settings: wild type
T3 construct: Plasmids of the eight single BET bromodomain constructs Brd2(1), Brd2(2), Brd3(1), Brd3(2); His6 (N); made in house; host or cells: E. coli BL21(DE3)
Description: as §1, §2, §3

Brd4(2) = target: T4, Brd4(2) (Homo sapiens, UniProt O60885); assay: DSF thermal shift; format: binding; settings: wild type
T4 construct: Plasmids of the eight single BET bromodomain constructs Brd2(1), Brd2(2), Brd3(1), Brd3(2), Brd4(1), Brd4(2), Brdt(1) and Brdt(2); His6 (N); made in house; host or cells: E. coli BL21(DE3)
Description: as §1, §2, §3

Brd2(1) Leu110-Ile = Brd2(1) Leu110-Ile (Homo sapiens, UniProt P25440, L110I); assay: DSF thermal shift; format: binding; design: Plasmids of the eight single BET bromodomain constructs Brd2(1), Brd2(2), Brd3(1), Brd3(2); His6 (N); made in house; host or cells: E. coli BL21(DE3); settings: mutant
Description: as §1, §2, §3

Brd2(2)*(Leu383-Ala) = Brd2(2)*(Leu383-Ala) (Homo sapiens, UniProt P25440, L383A); assay: DSF thermal shift; format: binding; design: Plasmids of the eight single BET bromodomain constructs Brd2(1), Brd2(2), Brd3(1), Brd3(2); His6 (N); made in house; host or cells: E. coli BL21(DE3); settings: mutant
Description: as §1, §2, §3

Brd2(2) Leu383-Ile = Brd2(2) Leu383-Ile (Homo sapiens, UniProt P25440, L383I); assay: DSF thermal shift; format: binding; design: Plasmids of the eight single BET bromodomain constructs Brd2(1), Brd2(2), Brd3(1), Brd3(2); His6 (N); made in house; host or cells: E. coli BL21(DE3); settings: mutant
Description: as §1, §2, §3

Brd2(1)*(Leu110-Ala) = Brd2(1)*(Leu110-Ala) (Homo sapiens, UniProt P25440, L110A); assay: DSF thermal shift; format: binding; design: Plasmids of the eight single BET bromodomain constructs Brd2(1), Brd2(2), Brd3(1), Brd3(2); His6 (N); made in house; host or cells: E. coli BL21(DE3); settings: mutant
Description: as §1, §2, §3

[1] = system: Brd2(1) and (2) wild type and leucine to alanine, valine and isoleucine mutants; assay: DSF thermal stabilization (FIG. 15); format: binding, human; settings: result in words
Description: as §1, §2, §3

Brd2(1)*(Met165Ala) = Brd2(1)*(Met165Ala) (Homo sapiens, UniProt P25440, M165A); assay: DSF thermal shift; format: binding; design: Plasmids of the eight single BET bromodomain constructs Brd2(1), Brd2(2), Brd3(1), Brd3(2); His6 (N); made in house; host or cells: E. coli BL21(DE3); settings: mutant
Description: (§4) DSF assays were performed on a LightCycler®480 from Roche or a Mx3005P Real Time PCR machine from Stratagene. Prior to DSF assays, frozen proteins were buffer exchanged using Vivaspin®6 concentrators with a 10 kDa cutoff on a Centrifuge 5430 from Eppendorf at a speed of 6000×g to remove glycerol and to buffer the proteins in 20 mM HEPES pH 7.5 at 25° C. and 100 mM NaCl. SYPRO®Orange from Invitrogen Molecular Probes® was used as a reporter dye to monitor the denaturing process of the proteins. Samples were assayed on a 96-well plate with final protein concentrations of 2 μM for the LightCycler®480 and 6 μM for Mx3005P. Compounds were added at a final concentration of 10 μM for the LightCycler®480 and 30 μM for Mx3005P, while the tetra acetylated histone peptide was added to a final concentration of 100 μM and 300 μM respectively. […] The temperature was raised with a step of 0.6° C. per minute from 37° C. to 95° C. with the LightCycler®480 collecting 39 measurements per ° C., and 1° C. per minute from 25° C. to 95° C. with Mx3005P, collecting fluorescence readings at the end of each interval. Each sample was run in triplicates.
as §2, §3

Solubility observations = settings: observation in words
Brd2(1)*(Met165-Leu) = target: T5, Brd2(1)*(Met165-Leu) (Homo sapiens, UniProt P25440, M165L); assay: DSF thermal shift; format: binding; settings: mutant
T5 construct: Plasmids of the eight single BET bromodomain constructs Brd2(1), Brd2(2), Brd3(1), Brd3(2); His6 (N); made in house; host or cells: E. coli BL21(DE3)
Description: as §4, §2, §3

Brd2(2)*(Met438-Ala) = target: T6, Brd2(2)*(Met438-Ala) (Homo sapiens, UniProt P25440, M438A); assay: DSF thermal shift; format: binding; settings: mutant
T6 construct: Plasmids of the eight single BET bromodomain constructs Brd2(1), Brd2(2), Brd3(1), Brd3(2); His6 (N); made in house; host or cells: E. coli BL21(DE3)
Description: as §4, §2, §3

Brd2(2)*(Met438-Leu) = target: T7, Brd2(2)*(Met438-Leu) (Homo sapiens, UniProt P25440, M438L); assay: DSF thermal shift; format: binding; settings: mutant
T7 construct: Plasmids of the eight single BET bromodomain constructs Brd2(1), Brd2(2), Brd3(1), Brd3(2); His6 (N); made in house; host or cells: E. coli BL21(DE3)
Description: as §4, §2, §3

T3 sequence (P25440 344-453 limits assumed): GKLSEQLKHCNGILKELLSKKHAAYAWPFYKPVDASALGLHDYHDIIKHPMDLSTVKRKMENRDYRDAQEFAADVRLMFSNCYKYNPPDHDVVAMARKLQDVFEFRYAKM
Sequence of Brd2(2)*(Leu383-Ala) (P25440 344-453 L383A limits assumed): as the sequence (P25440 344-453 limits assumed) above, with L40A counted along it
Sequence of Brd2(1)*(Leu110-Ala) (P25440 74-180 L110A limits assumed): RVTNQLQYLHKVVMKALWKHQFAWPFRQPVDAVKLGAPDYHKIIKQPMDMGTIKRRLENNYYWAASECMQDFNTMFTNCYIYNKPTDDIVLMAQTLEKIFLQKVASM
Sequence of Brd2(1) Leu110-Ile (P25440 74-180 L110I limits assumed): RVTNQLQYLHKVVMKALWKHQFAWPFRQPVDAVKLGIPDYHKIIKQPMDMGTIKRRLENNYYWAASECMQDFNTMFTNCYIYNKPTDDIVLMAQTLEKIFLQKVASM
Sequence of Brd2(2) Leu383-Ile (P25440 344-453 L383I limits assumed): as the sequence (P25440 344-453 limits assumed) above, with L40I counted along it
T2 sequence (P25440 74-180 limits assumed): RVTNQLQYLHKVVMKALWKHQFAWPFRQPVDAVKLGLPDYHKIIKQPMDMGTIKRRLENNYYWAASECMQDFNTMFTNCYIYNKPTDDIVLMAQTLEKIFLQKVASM
T6 sequence (P25440 344-453 M438A limits assumed): as the sequence (P25440 344-453 limits assumed) above, with M95A counted along it
Sequence of Brd2(1)*(Met165Ala) (P25440 74-180 M165A limits assumed): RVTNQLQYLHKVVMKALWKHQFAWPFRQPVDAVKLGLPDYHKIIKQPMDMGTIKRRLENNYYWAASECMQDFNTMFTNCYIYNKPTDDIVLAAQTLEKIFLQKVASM
T7 sequence (P25440 344-453 M438L limits assumed): as the sequence (P25440 344-453 limits assumed) above, with M95L counted along it
T5 sequence (P25440 74-180 M165L limits assumed): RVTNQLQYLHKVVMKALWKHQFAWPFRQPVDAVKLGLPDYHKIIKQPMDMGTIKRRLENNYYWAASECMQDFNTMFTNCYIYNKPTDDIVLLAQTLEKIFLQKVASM

Row | SMILES | ΔTm Brd4(1) (Brd4(1)) [K] | ΔTm Brd2(1) (Brd2(1)) [K] | ΔTm Brd2(2) (Brd2(2)) [K] | ΔTm Brd4(2) (Brd4(2)) [K] | ΔTm Brd2(1)*(Leu110-Ile) (Brd2(1) Leu110-Ile) [K] | ΔTm Brd2(2)*(Leu383-Ala) (Brd2(2)*(Leu383-Ala)) [K] | ΔTm Brd2(2)*(Leu383-Ile) (Brd2(2) Leu383-Ile) [K] | ΔTm Brd2(1)*(Leu110-Ala) (Brd2(1)*(Leu110-Ala)) [K] | Thermal stabilisation brd2(1) (Brd2(1)) [°C] | Thermal stabilisation brd2(2) (Brd2(2)) [°C] | Thermal stabilisation brd2(1)L110I (Brd2(1) Leu110-Ile) [°C] | Thermal stabilisation brd2(2)L383A (Brd2(2)*(Leu383-Ala)) [°C] | Thermal stabilisation brd2(2)V383I (Table 1); Brd2(2) Leu383-Ile (text) (Brd2(2) Leu383-Ile) [°C] | Thermal stabilisation brd2(1)L110A (Brd2(1)*(Leu110-Ala)) [°C] | Thermal stabilization of Brd2 mutants versus wild types (FIG. 15) [1] | ΔTm Brd2(1)*(Met165-Ala) (Brd2(1)*(Met165Ala)) [K] | Solubility (Solubility observations) | ΔTm Brd2(1)*(Met165-Leu) (Brd2(1)*(Met165-Leu)) [K] | ΔTm Brd2(2)*(Met165-Ala) (Brd2(2)*(Met438-Ala)) [K] | ΔTm Brd2(2)*(Met165-Leu) (Brd2(2)*(Met438-Leu)) [K]
1 | CC[C@H](C(=O)OC)[C@@H]1N=C(c2ccc(Cl)cc2)c2cc(OC)ccc2-n2c(C)nnc21 (racemic) [Compound 14, (+−)-methyl (S)-2-((S)-6-(4-chlorophenyl)-8-methoxy-1-methyl-4H-benzo[f][1,2,4]triazolo[4,3-a][1,4]diazepin-4-yl)butanoate] | 0.5 ± 0.1 | 1.0 ± 0.3 | 0.9 ± 0.4 | 0.1 ± 0.1 | 0.5 ± 0.0 | 2.4 ± 0.6 | 0.9 ± 0.3 | 1.8 ± 0.4 | – | – | – | – | – | – | – | – | – | – | – | –
2 | COC(=O)CC1(C)N=C(c2ccc(Cl)cc2)c2cc(OC)ccc2-n2c(C)nnc21 (racemic) [Compound 5, (+−)-methyl 2-(6-(4-chlorophenyl)-8-methoxy-1,4-dimethyl-4H-benzo[f][1,2,4]triazolo[4,3-a][1,4]diazepin-4-yl)acetate] | – | 2.2 ± 0.3 | 5.3 ± 0.3 | – | 3.3 ± 0.3 | 6.6 ± 0.4 | 6.8 ± 0.1 | 2.9 ± 0.4 | 2.2 ± 0.3 | 5.3 ± 0.3 | 3.3 ± 0.4 | 6.6 ± 0.4 | 6.8 ± 0.1 | 2.9 ± 0.4 | – | – | – | – | – | –
3 | COC(=O)CC1N=C(c2ccc(Cl)cc2)c2cc(OC)ccc2-n2c(C)nnc21 (racemic) [I-BET-OMe, (+−)-methyl 2-(6-(4-chlorophenyl)-8-methoxy-1-methyl-4H-benzo[f][1,2,4]triazolo[4,3-a][1,4]diazepin-4-yl)acetate, reference compound] | – | – | – | – | – | – | – | – | – | – | – | – | – | – | no selective stabilization of the mutant proteins | – | – | – | – | –
4 | COc1ccc(-c2ccc(S(=O)(=O)Nc3ccc4c(c3)CN(C)C(=O)N4)cc2)cc1 [Compound 50, 4′-methoxy-N-(3-methyl-2-oxo-1,2,3,4-tetrahydroquinazolin-6-yl)-[1,1′-biphenyl]-4-sulfonamide] | – | – | 0.7 ± 0.2 | – | – | – | – | – | – | – | – | – | – | – | – | 5.3 ± 0.3 | solubility of the compound decreased | 1.7 ± 0.1 | 4.1 ± 0.1 | 3.8 ± 0.2
5 | COC(=O)[C@@H](C)[C@@H]1N=C(c2ccc(Cl)cc2)c2cc(OC)ccc2-n2c(C)nnc21 (racemic) [Compound 6, (+−)-methyl (S)-2-((S)-6-(4-chlorophenyl)-8-methoxy-1-methyl-4H-benzo[f][1,2,4]triazolo[4,3-a][1,4]diazepin-4-yl)propanoate] | – | −0.3 ± 0.2 | 0.2 ± 0.2 | – | 0.0 ± 0.5 | 0.8 ± 0.6 | 0.3 ± 0.2 | 1.6 ± 0.2 | −0.3 ± 0.2 | 0.2 ± 0.2 | 0.0 ± 0.5 | 0.8 ± 0.6 | 0.3 ± 0.2 | 1.6 ± 0.2 | – | – | – | – | – | –
6 | Cc1cccc(S(=O)(=O)Nc2ccc3c(c2)CN(C)C(=O)N3)c1 [Compound 53, 3-methyl-N-(3-methyl-2-oxo-1,2,3,4-tetrahydroquinazolin-6-yl)benzenesulfonamide] | – | 0.0 ± 0.3 | 0.7 ± 0.1 | – | – | – | – | – | – | – | – | – | – | – | – | 0.0 ± 0.1 | low solubility | 0.0 ± 0.1 | 0.0 ± 0.1 | 0.0 ± 0.0
